“Also recorded” adds a separate entry of the source.

The source of these data is publication PMC3517986 (Biochemical Journal, 2012).

In assay [1] the target is T1, WDR5 (Homo sapiens, UniProt P61964). Type of assay: binding. Conditions: fluorescence polarization, 40 nM FITC-WIN peptide, 5 μM WDR5, triplicate. On the technique in general: Fluorescence polarisation rises when a labelled molecule tumbles more slowly, as on binding a larger partner.
Assay [2] has as its target T1, WDR5. Description: ITC. Type of assay: binding.
Assay [3] concerns the target MLL–WDR5–RbBP5 core complex (trimeric complex) (Homo sapiens, UniProt P61964). In words: Methyltransferase activity of trimeric MLL complex. Type of assay: biochemical.
The target of assay [4] is MLL–WDR5–RbBP5–ASH2L complex (Homo sapiens, UniProt P61964). Description: Methyltransferase activity of tetrameric MLL complex. Type of assay: biochemical. Conditions: tetrameric MLL complex at 10, 50 and 125 nM; not calculated owing to incomplete fitting.
The subject of the next assay is SETD7. In words: HMT selectivity panel: SETD7. Type of assay: biochemical, human. As to conditions: concentrations up to 100 μM.
Another assay has as its system G9a. In words: HMT selectivity panel: G9a. Type of assay: biochemical, human. Conditions: concentrations up to 100 μM.
In another assay the test system is EHMT1. In words: HMT selectivity panel: EHMT1. Type of assay: biochemical, human. As to conditions: concentrations up to 100 μM.
For a further assay, the system named is SUV39H2. Description: HMT selectivity panel: SUV39H2. Type of assay: biochemical, human. Conditions: concentrations up to 100 μM.
A further assay concerns SETD8. In words: HMT selectivity panel: SETD8. Type of assay: biochemical, human. Conditions: concentrations up to 100 μM.
Another assay deals with PRMT3. Description: HMT selectivity panel: PRMT3. Type of assay: biochemical, human. Conditions: concentrations up to 100 μM.
Another assay relates to PRMT5_MEP50 complex. Description: HMT selectivity panel: PRMT5. As to conditions: concentrations up to 100 μM. Type of assay: biochemical, human.

Take `CN1CCN(c2ccc([N+](=O)[O-])cc2NC(=O)c2ccccc2)CC1` [WDR5-0101, N-(2-(4-methylpiperazin-1-yl)-5 nitrophenyl)benzamide]: the “Kdis (Kdisplacement)” value at WDR5 [1] amounted to 12 ± 1 µM. Binding at WDR5 [2] was put at a Kd of 5500 ± 600 nM.

As for `COC(=O)c1ccc(N2CCN(C)CC2)c(NC(=O)c2cccc(OC)c2)c1` [WDR5-0103, methyl-3-(3-methoxybenzamido)-4-(4-methylpiperazin-1-yl)benzoate], on WDR5 [1], the “Kdis (Kdisplacement)” value came out at 3.0 ± 0.1 µM. Also, on WDR5 [2], the affinity, expressed as Kd, was 450 ± 20 nM. Besides, the IC50 – broadly, the concentration that inhibits the measured activity by half – in assay [3] (IC50, 125 nM (0.125 μM) trimeric MLL complex) came out at 39 ± 10 µM; in assay [3] (IC50, 500 nM trimeric MLL complex), 83 ± 10 µM; in assay [3] (IC50, 1000 nM trimeric MLL complex), 280 ± 12 µM. Besides, in assay [4], the “IC50 relative to trimeric complex” value was “significantly higher”. The inhibitory effect result with SETD7 is recorded as “no inhibitory effect; also recorded: did not affect methyltransferase activity”; in the assay on G9a it was “no inhibitory effect”; in the assay with EHMT1, “no inhibitory effect”; in the assay on SUV39H2, “no inhibitory effect”; with SETD8 it was “no inhibitory effect”; in the assay on PRMT3, “no inhibitory effect”. Moreover, the inhibitory effect entry with PRMT5_MEP50 complex was “no inhibitory effect”.
